Measured values: US20080261932A1, “METHODS AND COMPOSITIONS FOR THE PREVENTION AND/OR TREATMENT OF AN EX[…] ASTHMA” (Chiesi Farmaceutici S.p.A., priority 2007, published 2008)

Experiment: Tolerability of high, cumulative doses in asthmatic patients on maintenance treatment with the combination (double blind clinical comparison study)
Conditions: 10 puffs cumulative dose in addition to morning maintenance dose (2 puffs), assessed over 12 hours after dosing, vs placebo / comparator
Method: A study is performed to evaluate the tolerability of high, cumulative doses of the combination formoterol/beclometasone dipropionate or formoterol compared to a placebo when administered in asthmatic patients on regular treatment with the combination at the maximum recommended daily dose (6 microgram of formoterol/100 microgram beclometasone dipropionate, 2 puffs bid.: corresponding to a total daily dose of 24 microgram of formoterol and of 400 microgram of beclometasone dipropionate). The study is a double blind clinical comparison study of ten puffs of the pressurized metered dose inhaler solution formulation of the combination of Example 1 (formoterol 6 microgram+beclometasone dipropionate 100 microgram) or formoterol (6 microgram) or placebo during the maintenance treatment of asthma with 2 puffs bid. of the combination formoterol/beclometasone dipropionate of Example 1.
Cumulative doses (10 puffs) are administered on 3 separated days in addition to the morning dose maintenance (2 puffs). The primary endpoint is serum potassium, assessed over a 12 hours period after the cumulative doses.

Structure (SMILES): COc1ccc(CC(C)NCC(O)c2ccc(O)c(NC=O)c2)cc1 (racemic) [Formoterol, (±) N-[2-hydroxy-5-(1-hydroxy-2-((2-(4-methoxyphenyl)-1-methylethyl)amino)ethyl)phenyl]formamide]
- serum potassium level: significantly greater decrease in serum potassium level than the combination or placebo
- serum potassium level (listed as formoterol): significantly greater decrease in serum potassium level than the either the combination or the placebo
